Where “and” joins values, the source holds several entries; their conditions need not be identical. Identical values can stand only once.
How the values were obtained:
[1] = Urine Coc level of patient on codeine; format: in vivo, human; settings: Table J, patient four
Description: (§1) Shown in FIG. 13 are mean nup values for codeine as a function of daily, total dose. […]. Her mean codeine level while stabilized on 90 mg of codeine qd, as shown on FIG. 13, should be 19,102 +/-3840 ng/ml.

[2] = in vivo
From the text: To determine compliance with the prescribed medication dose, random urine samples are obtained from the patient and analyzed in accordance with the invention as described in FIG. 9. […] The raw urine medication concentration (u) is next converted to a normalized urine medication concentration (nu) as discussed below. Over time, a normalized urine medication concentration-daily medication dose relationship is derived for each individual patient, which can be compared to the relationship expected for that particular patient. Alternatively, by adjusting the normalized urine medication concentration relative to the urinary pharmacokinetic parameters for each medication, a urinary-parameter normalized urine medication concentration (nup) may be calculated and compared to that expected for an average patient to determine compliance with the patient's prescribe medication dose.
nu=u'=u·(v/v')=u·UVPRF=u·(k1
The relationships for any medication family between nu and the medication pharmacokinetic parameters are empirically developed using regression analysis.
nup (patient body weight/k3)·u·UVPRF (19)
Two methods of interpreting urine medication results for compliance monitoring have now been developed. The first and most primitive method is to simply establish, using data from controls and compliant patients, mean drug levels and the expected ranges (minimums and maximums) for the nup of each particular medication at each particular daily, total dose amount.

[3] = Urine opiate concentration (codeine, oxycodone), urinary-parameter normalized; format: in vivo, human
Description: as §1
patient three is a person requiring opioid medications for severe arachnoiditis following surgery in the lumber spine. They were prescribed oxycodone without acetaminophen since they are status post removal of one kidney because of renal carcinoma. Shown in Table K are their oxycodone levels (40 mg per day total dose) which are within acceptable limits of 800-1600 ng/ml.

[4] = to deter illicit opioid use; past studies; cited from earlier work
migraine = experiment: Clinical cases: migraine in patients on methadone maintenance; format: in vivo, human
[5] = Plasma methadone calculated from spot urine versus measured plasma methadone (FIG. 7)
[6] = Renal excretion rate in timed urine aliquots of compliant control subjects; format: in vivo, human; settings: as function of urine volume production rate, during a typical day
[7] = Urine methadone concentration (FPIA) of maintenance patients, with calculated plasma methadone concentration and urinary-parameter normalized urine concentration
From the text: The unadulterated sample is next analyzed for raw urine methadone concentration, preferably using fluorescence polarization immunoassay (FPIA) technology. In this regard an Abbott TDX or ADX Analyzer may be profitably employed. Other standard analytical methods may also be used such as chromatography or other types of immunoassay. […]
where cl is renal clearance (ml/min), u is raw urine methadone concentration (ng/ml), v is the volume of urine collected in time (ml/min) or otherwise known as the urine volume production rate, and p is the measured plasma methadone concentration at the midpoint of the collection period (ng/ml).
Combining all of the above considerations, plasma methadone concentrations can be calculated by substituting Equations (2, 8, 9 and 10) in Equation (3): [formula] where values of u, specific gravity, and pH are known from previous test results on a patient's spot urine sample. The equation may be more generally expressed as follows: […]
p=k3 ·u·(k1 SGF-k2)/k4
FIG. 6 was developed by utilizing data from 8300 urine samples from 150 methadone maintenance patients on controlled daily methadone dosages.
The parameters of a patient's urine, such as pH and specific gravity, vary from one day to the next dependant upon the type and quantities of foods and beverages ingested. Additionally, individuals metabolizes these substances, as well as methadone, at different rates. To account for these variations, a urinary-parameter normalized urine methadone concentration, nup, is calculated that adjusts measured raw urine methadone concentration, u, in accordance with a prescribed methadone dose, urine specific gravity, patient's current body weight (lbs) and urine pH. The relationship between u, pH, dose and specific gravity was empirically developed using nonlinear regression analysis. […]
nup =(k3 /DOSE)^k4 ·(k5 /pH)^k6 […]
Given this value, another set of prediction equations specifying the allowable range for the next measured nup for a particular patient, given a sample size of n, a mean nup for an individual patient and either the patient standard deviation or the population standard deviation (whichever is least), can be calculated as shown in Hahn and Meeker. If the measured value is within the acceptable statistical range, given a previously calculated mean and standard deviation, then it is accepted. If the value is too high or too low, this is marked on the urine drug screen under the column called Pred, as shown in clinical cases #'s 4 and 5, Tables F and G.

[8] = patient two, 130 mg per day methadone
[9] = Table A, compliant patient, dose 60 mg/day, individual dates
[10] = Table A, compliant patient, dose 70 mg/day, individual dates
[11] = Table A, mean of 12 tests, 60-70 mg/day
[12] = Table B, patient one, dose 45 mg, individual dates
[13] = Table B, patient one, mean of 12 tests, 45 mg
[14] = Table C, patient two, mean of 12 tests, dose 40-100
[15] = Table D, patient two (barbiturates discontinued), dose 130
[16] = Table D, patient two, mean of 12 tests, dose 110-130
[17] = Table G, mean of 13 tests, dose 130

COC(=O)[C@H]1[C@@H](OC(=O)c2ccccc2)C[C@@H]2CC[C@H]1N2C [Coc]
Coc [1]: 0

Cc1nnc2n1-c1ccc(Cl)cc1C(c1ccccc1)=NC2 [alprazolam]
Xanax level, mean ([2]; human): 4268 ng/mL | SD of alprazolam normalized concentration, % of mean [2]: ~15% | SEE of nup = k*Dose [2]: 210 | importance of urine pH for nup [2]: not important

COc1ccc2c3c1O[C@H]1[C@@H](O)C=C[C@H]4[C@@H](C2)N(C)CC[C@@]341 [codeine]
mean codeine level (nup) ([3]; FIG. 13, patient four stabilized on 90 mg of codeine qd): 19,102 +/-3840 ng/ml | Opi (nup, codeine), mean ([3]; Table J, patient four, mean of 9 tests, 90 mg codeine qd): 19102 ng/mL

CN1C(=O)CN=C(c2ccccc2)c2cc(Cl)ccc21 [diazepam]
SEE of nup = k*Dose [2]: 806 | importance of urine pH for nup [2]: not important | nup per daily dose (coefficient of nup = k*Dose) [2]: 267(SE 16.9)

CCC(=O)C(CC(C)N(C)C)(c1ccccc1)c1ccccc1 (stereo not drawn) [methadone]
optimum/necessary (24-hour trough) plasma methadone concentration [4]: 150 to 600 ng/mL | migraine attacks during treatment (migraine; patient one, 36 months, 45 mg methadone): 2 migraine attacks | frequency and severity of migraines (migraine; patient one, titration to 45 mg methadone): migraines slowly decayed in frequency and severity | plasma methadone level related to migraine attacks (migraine; patient one, transient decrease after vomiting): below 80 ng/ml | migraine response (migraine; [8]): migraines ceased completely | plasma methadone level at which migraines ceased completely (migraine; [8]): above 135 ng/ml | adjusted squared multiple R, estimated versus measured plasma methadone concentration ([5]; FIG. 7): 0.987 | slope, estimated versus measured plasma methadone concentration ([5]; FIG. 7, linear regression, intercept -1.25 (SE 11.495), F-ratio 810): 0.970 (SE 0.034) | renal excretion rate (mg/min) [6]: relatively constant | nup, urinary-parameter normalized urine methadone concentration [7, 9]: 7448 ng/mL and 9473 ng/mL | u, raw urine methadone concentration [7, 9]: 7049 ng/mL and 4935 ng/mL | nup, urinary-parameter normalized urine methadone concentration [7, 10]: 6966 ng/mL and 7381 ng/mL and 10913 ng/mL and 7430 ng/mL and 7208 ng/mL and 6254 ng/mL and 5532 ng/mL and 7790 ng/mL and 5852 ng/mL and 6881 ng/mL | u, raw urine methadone concentration [7, 10]: 6838 ng/mL and 6536 ng/mL and 5462 ng/mL and 5180 ng/mL and 7398 ng/mL and 5990 ng/mL and 4203 ng/mL and 8469 ng/mL and 3736 ng/mL and 5601 ng/mL | nup, mean [7, 11]: 7427 ng/mL | u, mean [7, 11]: 5950 ng/mL | nup, urinary-parameter normalized urine methadone concentration [7, 12]: 21153 ng/mL and 25720 ng/mL and 22145 ng/mL and 32208 ng/mL and 10174 ng/mL and 13051 ng/mL and 15585 ng/mL and 17845 ng/mL and 7585 ng/mL and 10815 ng/mL and 20168 ng/mL and 18777 ng/mL | u, raw urine methadone concentration [7, 12]: 1069 ng/mL and 1336 ng/mL and 2109 ng/mL and 1883 ng/mL and 646 ng/mL and 1246 ng/mL and 1285 ng/mL and 757 ng/mL and 4094 ng/mL and 1318 ng/mL and 3900 ng/mL and 915 ng/mL | nup, mean [7, 13]: 17265 ng/mL | u, mean [7, 13]: 1713 ng/mL | u, raw urine methadone concentration ([7]; Table C, patient two, dose 40): 174 ng/mL and 296 ng/mL | nup, urinary-parameter normalized urine methadone concentration ([7]; Table C, patient two, dose 50): 2924 ng/mL | u, raw urine methadone concentration ([7]; Table C, patient two, dose 50): 853 ng/mL | nup, urinary-parameter normalized urine methadone concentration ([7]; Table C, patient two, dose 65): 1367 ng/mL | nup, urinary-parameter normalized urine methadone concentration ([7]; Table C, patient two, dose 80): 1070 ng/mL | u, raw urine methadone concentration ([7]; Table C, patient two, dose 80): 1120 ng/mL | nup, mean [7, 14]: 1709 ng/mL | u, mean [7, 14]: 1456 ng/mL | nup, urinary-parameter normalized urine methadone concentration [7, 15]: 7728 ng/mL and 5944 ng/mL and 5117 ng/mL | u, raw urine methadone concentration [7, 15]: 4915 ng/mL and 6565 ng/mL and 9494 ng/mL | nup, urinary-parameter normalized urine methadone concentration ([7]; Table D, patient two, dose 110): 6580 ng/mL and 6703 ng/mL and 10880 ng/mL and 6025 ng/mL | nup, urinary-parameter normalized urine methadone concentration ([7]; Table D, patient two, dose 120): 8970 ng/mL and 6778 ng/mL and 8074 ng/mL and 11966 ng/mL and 6031 ng/mL | nup, mean [7, 16]: 7236 ng/mL | u, mean [7, 16]: 7036 ng/mL | Pred (flag: nup outside statistical range predicted for patient) ([7]; Table F, case #4, dose 140): High | nup, mean ([7]; Table F, mean of 11 tests, dose 120-140): 5130 ng/mL | u, mean ([7]; Table F, mean of 12 tests, dose 120-140): 8008 ng/mL | Pred (flag: nup outside statistical range predicted for patient) ([7]; Table G, case #5, dose 130): LOW and HIGH | nup, mean [7, 17]: 8396 ng/mL | u, mean [7, 17]: 10585 ng/mL | average population standard deviation of nup ([7]; acceptably compliant methadone patients): about 3000 | plasma methadone levels over time ([7]; patient two, Tables C and D, after discontinuing barbiturate-containing compounds): increased

Oc1ccc2c3c1O[C@H]1[C@@H](O)CC[C@@]4(O)[C@@H](C2)N(CC2CCC2)CC[C@]314 [nalbuphine]
control of migraine pain (migraine; patient two, self-administered IM): failure

COc1ccc2c3c1O[C@H]1C(=O)CC[C@@]4(O)[C@@H](C2)N(C)CC[C@]314 [oxycodone]
nup, Opi (oxycodone), mean ([3]; Table K, patient three, mean of 12 tests, 40 mg per day): 1206 ng/mL | oxycodone levels, acceptable limits ([3]; patient three, 40 mg per day total dose): 800 to 1600 ng/mL

Reference: US5908788A, “Method of monitoring patient compliance with medications prescriptions” (priority 1996, dated 1999)
